Measured values taken from patent US11572372B2, “Anti-HBVtetrahydroisoxazolo[4,3-c]pyridine compounds” (CHIA TAI TIANQING PHARMACEUTICAL GROUP CO., LTD., priority 2017, dated 2023).
Where two headings read alike, the source gives them in different places.

Key:
[1] = test system: HBV DNA in HepG2.2.15 cells; assay: In vitro anti-HBV activity assay (HBV DNA in HepG2.2.15 supernatant, qPCR); format: cell-based; settings: Hepatitis B virus, HepG2.2.15, 192 h; inhibition of HBV DNA in supernatant, 8 days culture
Experimental: 1) 100 μL of HepG2.2.15 cells were seeded at a number of 1.2×10^5 cells per well into a 96-well cell culture plate, and then the cells were cultured in a 37° C. incubator with 5% carbon dioxide (CO2) overnight. On day 2, the compounds to be tested were diluted with DMSO in 3-fold gradient to eight concentrations in total. Then the compounds were diluted 100-fold with culture medium, and 100 μL of the diluted compounds were taken and added to the cell-containing plate in a final volume of 200 μL, and the final concentration of DMSO was 0.5%, and two duplicate wells were used. The cells were cultured in a 37° C. incubator with 5% CO2 for 3 days. On day 5, the solutions in the cell culture plate were replaced with fresh culture medium containing the same concentrations of compounds. When culture was performed for 8 days, cell culture plate supernatant was collected for the extraction of HBV DNA.
2) Detection of HBV DNA by real-time quantitative PCR: the total DNA in the supernatant was extracted with QIAamp 96 DNA Blood Kit, and the content of HBV DNA was detected by quantitative PCR using HBV specific primers and probes. 20 μL PCR pre-mixed solution and 5 μL HBV DNA sample or HBV plasmid standard sample were added to a quantitative PCR plate for reaction. The HBV plasmid standard sample was diluted in 10-fold gradient to seven concentrations from 10^7 to 10 copies/μL. The quantitative PCR reaction procedure was as follows: pre-denaturation at 95° C. for 10 minutes; denaturation at 95° C. for 15 seconds, reaction at 60° C. for 1 minute, and this cycle was repeated 40 times. The inhibition rate of each well against HBV DNA was calculated according to the following equation, and the inhibition rate data of the compounds were subjected to a non-linear fitting analysis using GraphPad Prism software to obtain EC50 values of the compounds. HBV DNA inhibition rate %=(1−copy number of HBV DNA of the sample/copy number of HBV DNA of DMSO control)*100% The assay results are shown in Table 1 below.

[2] = Pharmacokinetic study for mouse (single intravenous or gavage administration); format: in vivo, mice; settings: for clearance / half-life / AUC(0-t) / Vd / Cmax / Tmax: plasma; for AUC(0-t): read-out: AUC0-24 h; for Vd: read-out: Vdss
Experimental: This experiment aims to evaluate the pharmacokinetic behavior of the compounds after a single intravenous or gavage administration in mice. As for the intravenous administration, the compounds were formulated into 0.5 mg/mL clear solutions, vehicle: 5% DMSO/5% 12-hydroxy stearate (solutol)/90% water; as for the gavage administration, the compounds were formulated into 2 mg/mL suspensions, vehicle: 0.5% sodium carboxymethylcellulose/0.2% Tween 80/99.3% water.
The concentrations of the compounds in plasma were determined by high-performance liquid chromatography-tandem mass spectrometry (LC-MS/MS). The retention time, chromatogram acquisition and integration of the chromatograms of the compounds and the internal standard (diclofenac) were processed using the software Analyst (Applied Biosystems), and data statistics were processed using the software Watson LIMS (Thermo Fisher Scientific) or Analyst (Applied Biosystems). The concentration unit of the analyte in the sample is ng/mL, 3 significant digits were retained, and all the values represented by percentages (e.g., % deviation and % coefficient of variation, etc.) have one decimal place. Each calibration curve contains at least 6 concentration levels. The calibration standard samples were formulated using stock solutions from different sources from the quality control samples. If the deviation between the calculated concentration of a calibration standard sample and the indicated value exceeds ±15.0% (the lower limit of quantitation exceeds ±20.0%), such standard sample should be excluded in regression analysis. The excluded calibration standard samples should be less than 25%, and each calibration curve contains at least 6 calibration standard samples that meet the acceptable standard. If the calibration standard samples at the lower and upper limits of quantification need to be excluded, the upper and lower limits of quantification of this batch of analytes will be increased and decreased accordingly.
Plasma concentrations were processed using a non-compartmental model of the WinNonlin™ Version 6.3 (Pharsight, Mountain View, Calif.) pharmacokinetic software, and pharmacokinetic parameters were calculated using the linear logarithmic trapezoidal method. The pharmacokinetic parameters to be calculated include, but are not limited to (if the data is not allowed), T1/2, Vdss, CL, AUC0-24h of the intravenous group; Cmax, Tmax, AUC0-24h and bioavailability (F %) of the oral gavage group.

HBV [3] = assay: In vivo activity assay of HBV DNA in mouse plasmid model of tail vein high-pressure injection (Example 23); parameters: species or system female BABL/c mice; settings: 60 mg/Kg, gavage
Experimental: (§1) The purpose of this study was to test the inhibitory effect of the compound (Example 23) against HBV in mice through a mouse model of high-pressure tail vein injection. In this experiment, female BABL/c mice were used, and the mice were 6-7 weeks old. The HBV plasmid DNA was extracted by using pAAV2-HBV 1.3 mer with Qiagen EndoFree Plasmid Giga kit at a concentration of 1000 ng/μL. The resulting solution was diluted with normal saline before use and stored at 4° C. until use.

HBV [4] = assay: In vivo activity assay of HBV DNA in mouse plasmid model of tail vein high-pressure injection (Example 6); parameters: species or system female BABL/c mice; settings: 30 mg/Kg, gavage, twice a day
Experimental: as §1, with “6)” for “23)”
100 μL of whole blood was taken from each mouse approximately 4 hours after the first administration On days 1, 3, and 5, and the whole blood was collected into a tube containing sodium heparin, centrifuged at 4° C. at 7000 rpm for 10 minutes, and the supernatant was taken to obtain plasma. The plasma was stored in a refrigerator at −80° C. and transported to an analytical laboratory for testing under dry ice freezing condition.
1) DNA in plasma was extracted, and the experimental procedure was carried out with reference to the instruction for QIAamp 96 DNA Blood Kit.
A qPCR reaction mixture was formulated (see Table 6). The qPCR reaction mixture, sample and standard sample were added to a 96-well reaction plate. The standard sample was plasmid DNA containing the full-length sequence of type D HBV. The standard sample was diluted from 10^7 copies/μL in 10-fold gradient to successively obtain 10^6˜10^1 copies/μL of DNA standard samples. PCR reaction: 95° C., 10 min; 95° C., 15 seconds; 60° C., 1 minute; 40 cycles.
Liver tissue was taken and homogenized with a tissue grinder. After centrifugation, the supernatant was transferred to a new centrifuge tube and digested with proteinase K digestion solution for 3 hours. The resulting mixture was cooled, and then RNAse A was added thereto to incubate for 30 minutes. The RNase A-treated mixture was extracted twice with an equal volume of phenol chloroform isoamyl alcohol to remove residual protein. The supernatant was transferred to a new centrifuge tube, and isopropanol was added thereto to precipitate the DNA. The DNA precipitation was washed twice with 70% ethanol. The precipitation was then air-dried and TE (10 mM Tris-HCl, pH 8.0, 1 mM EDTA) was added thereto to dissolve the DNA.
The DNA concentrations were measured with Nanodrop and adjusted to 10 ng/μL for all the samples. 5 μL samples were added to the quantitative PCR reaction system for quantitative PCR.
HBV DNA content=DNA content detected by HBV primer-DNA content detected by pAAV2 primer.

## C[C@H]1Cc2noc(-c3ccc(F)cn3)c2CN1C(=O)Nc1cc(F)c(F)c(F)c1 [Example 1]
[1]
  EC50: 5.3 nM
[2]; oral gavage, 10 mg/Kg
  F: 76.1%
  Cmax: 4.26 µM
  Tmax: 1 h
  AUC(0-t): 47.2 µM·h
[2]; intravenous injection, 1 mg/Kg
  clearance: 5.8 mL/min/kg
  half-life: 5.62 h
  AUC(0-t): 6.71 µM·h
  Vd: 2.77 L/kg

## C[C@H]1Cc2noc(-c3ncccn3)c2CN1C(=O)Nc1ccc(F)c(F)c1 [Example 26]
[1]
  EC50: 19.1 nM

## C[C@H]1Cc2noc(-c3ccccc3)c2CN1C(=O)Nc1cc(F)c(F)c(F)c1 [Example 2]
[1]
  EC50: 29.3 nM

## C[C@H]1Cc2noc(-c3ccc(F)cc3F)c2CN1C(=O)Nc1ccc(F)c(C#N)c1 [Example 19]
[1]
  EC50: 10.4 nM

## C[C@H]1Cc2noc(-c3ncccn3)c2CN1C(=O)Nc1cc(F)c(F)c(F)c1 [Example 25]
[1]
  EC50: 14.9 nM

## C[C@H]1Cc2noc(-c3nccs3)c2CN1C(=O)Nc1cc(F)c(F)c(F)c1 [Example 16]
[1]
  EC50: 24.6 nM

## COc1cccc(-c2onc3c2CN(C(=O)Nc2cc(F)c(F)c(F)c2)[C@@H](C)C3)c1 [Example 8]
[1]
  EC50: 37.3 nM

## C[C@H]1Cc2noc(-c3ncccn3)c2CN1C(=O)Nc1ccc(F)c(Cl)c1 [Example 24]
[1]
  EC50: 15.6 nM

## C[C@H]1Cc2noc(-c3ccccc3F)c2CN1C(=O)Nc1cc(F)c(F)c(F)c1 [Example 3]
[1]
  EC50: 9 nM

## C[C@H]1Cc2noc(-c3ccsn3)c2CN1C(=O)Nc1cc(F)c(F)c(F)c1 [Example 18]
[1]
  EC50: 12.2 nM

## C[C@H]1Cc2noc(-c3ccc(F)cc3F)c2CN1C(=O)Nc1ccc(F)c(Cl)c1 [Example 20]
[1]
  EC50: 8.66 nM

## C[C@H]1Cc2noc(-c3cscn3)c2CN1C(=O)Nc1cc(F)c(F)c(F)c1 [Example 15]
[1]
  EC50: 6.7 nM

## C[C@H]1Cc2noc(-c3ccc(F)cc3F)c2CN1C(=O)Nc1ccnc(Cl)c1 [Example 22]
[1]
  EC50: 35.2 nM

## C[C@H]1Cc2noc(-c3ncccn3)c2CN1C(=O)Nc1ccc(F)c(C#N)c1 [Example 23]
[1]
  EC50: 25.4 nM
HBV [3]; liver tissue after 7 days of administration, BID, solvent control 6.01
  Log HBV DNA mean value: 4.50 copy number/μL
HBV [3]; liver tissue after 7 days of administration, QD, solvent control 6.01
  Log HBV DNA mean value: 5.18 copy number/μL
HBV [3]; plasma, Day 1, BID, solvent control 2.03
  Log HBV DNA mean value: 1.94 copy number/μL
HBV [3]; plasma, Day 1, QD, solvent control 2.03
  Log HBV DNA mean value: 2.10 copy number/μL
HBV [3]; plasma, Day 3, BID, solvent control 4.47
  Log HBV DNA mean value: 3.02 copy number/μL
HBV [3]; plasma, Day 3, QD, solvent control 4.47
  Log HBV DNA mean value: 3.15 copy number/μL
HBV [3]; plasma, Day 5, BID, solvent control 4.76
  Log HBV DNA mean value: 2.94 copy number/μL
HBV [3]; plasma, Day 5, QD, solvent control 4.76
  Log HBV DNA mean value: 3.92 copy number/μL
HBV [3]; plasma, Day 7, BID, solvent control 3.53
  Log HBV DNA mean value: 2.14 copy number/μL
HBV [3]; plasma, Day 7, QD, solvent control 3.53
  Log HBV DNA mean value: 3.19 copy number/μL
[2]; oral gavage, 3 mg/Kg
  F: 55.3%
  Cmax: 3.4 µM
  Tmax: 0.5 h
  AUC(0-t): 16.7 µM·h
[2]; intravenous injection, 1 mg/Kg
  clearance: 4.36 mL/min/kg
  half-life: 3.03 h
  AUC(0-t): 10 µM·h
  Vd: 1.09 L/kg

## COc1ccc(-c2onc3c2CN(C(=O)Nc2cc(F)c(F)c(F)c2)[C@@H](C)C3)cc1 [Example 9]
[1]
  EC50: 10.5 nM

## C[C@H]1Cc2noc(-c3cnccn3)c2CN1C(=O)Nc1cc(F)c(F)c(F)c1 [Example 13]
[1]
  EC50: 58.9 nM

## C[C@H]1Cc2noc(-c3ccc(F)cc3)c2CN1C(=O)Nc1cc(F)c(F)c(F)c1 [Example 5]
[1]
  EC50: 24.7 nM

## Cc1cc(NC(=O)N2Cc3c(noc3-c3ccc(F)cc3F)C[C@@H]2C)ccc1F [Example 21]
[1]
  EC50: 5.58 nM

## C[C@H]1Cc2noc(-c3ccc(F)cc3F)c2CN1C(=O)Nc1cc(F)c(F)c(F)c1 [Example 6]
[1]
  EC50: 4.9 nM
HBV [4]; liver tissue after 7 days of administration, solvent control 5.67
  Log HBV DNA mean value: 3.09 copy number/μL
HBV [4]; plasma, Day 1, solvent control 2.22, Log(LLOQ) = 1.60
  Log HBV DNA mean value: 2.23 copy number/μL
HBV [4]; plasma, Day 3, solvent control 4.51, Log(LLOQ) = 1.60
  Log HBV DNA mean value: 1.74 copy number/μL
HBV [4]; plasma, Day 5, solvent control 5.01, Log(LLOQ) = 1.60
  Log HBV DNA mean value: 2.02 copy number/μL
HBV [4]; plasma, Day 7, solvent control 3.30, Log(LLOQ) = 1.60
  Log HBV DNA mean value: 1.85 copy number/μL
[2]; oral gavage, 10 mg/Kg
  F: 58.4%
  Cmax: 4.94 µM
  Tmax: 0.5 h
  AUC(0-t): 66.7 µM·h
[2]; intravenous injection, 1 mg/Kg
  clearance: 2.84 mL/min/kg
  half-life: 9.31 h
  AUC(0-t): 11.4 µM·h
  Vd: 2.33 L/kg

## C[C@H]1Cc2noc(-c3ccc(Cl)cc3)c2CN1C(=O)Nc1cc(F)c(F)c(F)c1 [Example 12]
[1]
  EC50: 68.8 nM
